Values quoted from earlier work as cited in patent US20250221905A1, “HAIR CARE COMPOSITION” (Conopco, Inc., d/b/a UNILEVER, priority 2022, published 2025).

Assays:
[1] = supplier Croda
5α-reductase = settings: background statement

HLB value [1] | sebum excess action modeled by 5α-reductase evaluation (5α-reductase) | Compound
15.5 |  | Oleth-20 [Brij O20]
 | reduce sebum excess action | CCCCCCCC(=O)NCC(=O)O [Capryloyl glycine, N-(1-oxooctyl) glycine]
11 |  | Polysorbate 85 [Tween 85]
4.9 |  | Steareth-2 [Brij S2]
